{"source": "ChEMBL document CHEMBL4813938", "about": "“Astragaloside IV Improves Tibial Defect in Rats and Promotes Proliferation and Osteogenic Differentiation of hBMSCs through MiR-124-3p.1/STAT3 Axis” (J Nat Prod, 2021)", "key": {"[1]": {"system": "Rattus norvegicus", "assay": "Induction of tibial bone defect regeneration in ip dosed Lewis rat assessed as reduction in […] mRNA expression level administered for 10 consecutive days by RT-qPCR analysis", "type": "functional, organism-based", "conditions": "dose 0.16-4 g/Kg, time 10.0 day"}, "[2]": {"system": "Rattus norvegicus", "assay": "Induction of tibial bone defect regeneration in ip dosed Lewis rat assessed as […] in STAT3 mRNA expression level administered for 10 consecutive days by RT-qPCR analysis", "type": "functional, organism-based", "conditions": "dose 0.16-4 g/Kg, time 10.0 day"}, "[3]": {"system": "Rattus norvegicus", "assay": "Induction of tibial bone defect regeneration in ip dosed Lewis rat assessed as […] in STAT3 protein expression level administered for 10 consecutive days by Western blotting analysis", "type": "functional, organism-based", "conditions": "dose 0.16-4 g/Kg, time 10.0 day"}, "[4]": {"system": "Rattus norvegicus", "assay": "Induction of tibial bone defect regeneration in ip dosed Lewis rat assessed as increase in BV/TV of tibial bone administered for 10 consecutive days by microcomputed tomography method", "type": "functional, organism-based", "conditions": "dose 0.16-4 g/Kg, time 10.0 day"}, "[5]": {"system": "Rattus norvegicus", "assay": "Induction of tibial bone defect regeneration in ip dosed Lewis rat assessed as increase in Tb.N of tibial bone administered for 10 consecutive days by microcomputed tomography method", "type": "functional, organism-based", "conditions": "dose 0.16-4 g/Kg, time 10.0 day"}, "[6]": {"system": "Rattus norvegicus", "assay": "Induction of tibial bone defect regeneration in ip dosed Lewis rat assessed as increase in Tb.Th of tibial bone administered for 10 consecutive days by microcomputed tomography method", "type": "functional, organism-based", "conditions": "dose 0.16-4 g/Kg, time 10.0 day"}, "[7]": {"system": "Rattus norvegicus", "assay": "Induction of tibial bone defect regeneration in ip dosed Lewis rat assessed as increase in BMD of tibial bone administered for 10 consecutive days by microcomputed tomography method", "type": "functional, organism-based", "conditions": "dose 0.16-4 g/Kg, time 10.0 day"}, "[8]": {"system": "Rattus norvegicus", "assay": "Induction of tibial bone defect regeneration in ip dosed Lewis rat assessed as decrease in Tb.Sp of tibial bone administered for 10 consecutive days by microcomputed tomography method", "type": "functional, organism-based", "conditions": "dose 0.16-4 g/Kg, time 10.0 day"}, "[9]": {"system": "HBMSC", "assay": "Induction of osteogenic differentiation in human BMSCs assessed as increase in cell viability incubated for 72 hrs under osteogenic conditions by MTT assay", "type": "functional, tissue-based", "conditions": "dose 80-320 mg/ml"}, "[10]": {"system": "HBMSC", "assay": "Induction of cell cycle arrest in human BMSCs assessed as decrease in cells at G0/G1 phase under osteogenic conditions by PI staining based flow cytometric analysis", "type": "functional", "conditions": "dose 80-320 mg/ml"}, "[11]": {"system": "HBMSC", "assay": "Induction of cell cycle arrest in human BMSCs assessed as accumulation of cells at S phase under osteogenic conditions by PI staining based flow cytometric analysis", "type": "functional, tissue-based", "conditions": "dose 80-320 mg/ml"}, "[12]": {"system": "HBMSC", "assay": "Induction of cell cycle arrest in human BMSCs assessed as accumulation of cells at G2/M phase under osteogenic conditions by PI staining based flow cytometric analysis", "type": "functional, tissue-based", "conditions": "dose 80-320 mg/ml"}, "[13]": {"system": "HBMSC", "assay": "Induction of osteogenic differentiation in human BMSCs assessed as increase in alkaline phosphatase activity incubated for 21 days under osteogenic conditions by ELISA", "type": "functional, tissue-based", "conditions": "dose 80-320 mg/ml, time 21.0 day"}, "[14]": {"system": "HBMSC", "assay": "Induction of osteogenic differentiation in human BMSCs assessed as increase in osteogenic medium-induced matrix mineralization by measuring calcium deposition by Alizarin Red S staining-based microscopic analysis", "type": "functional, tissue-based", "conditions": "dose 80-320 mg/ml"}, "[15]": {"system": "HBMSC", "assay": "Induction of osteogenic differentiation in human BMSCs assessed as increase in osteogenic medium-induced RUNX2 protein expression level by Western blot analysis", "type": "functional, tissue-based", "conditions": "dose 80-320 mg/ml"}, "[16]": {"system": "HBMSC", "assay": "Induction of osteogenic differentiation in human BMSCs assessed as increase in osteogenic medium-induced OCN protein expression level by Western blot analysis", "type": "functional, tissue-based", "conditions": "dose 80-320 mg/ml"}, "[17]": {"system": "HBMSC", "assay": "Induction of osteogenic differentiation in human BMSCs assessed as increase in osteogenic medium-induced Smad4 protein expression level by Western blot analysis", "type": "functional, tissue-based", "conditions": "dose 80-320 mg/ml"}, "[18]": {"system": "HBMSC", "assay": "Induction of osteogenic differentiation in human BMSCs assessed as increase in osteogenic medium-induced RUNX2 mRNA expression level by RT-qPCR analysis", "type": "functional, tissue-based"}, "[19]": {"system": "HBMSC", "assay": "Induction of osteogenic differentiation in human BMSCs assessed as increase in osteogenic medium-induced OCN mRNA expression level by RT-qPCR analysis", "type": "functional, tissue-based", "conditions": "dose 80-320 mg/ml"}, "[20]": {"system": "HBMSC", "assay": "Induction of osteogenic differentiation in human BMSCs assessed as increase in osteogenic medium-induced Smad4 mRNA expression level by RT-qPCR analysis", "type": "functional, tissue-based", "conditions": "dose 80-320 mg/ml"}, "[21]": {"system": "HBMSC", "assay": "Induction of osteogenic differentiation in human BMSCs assessed as down regulation of miR-124-3p.1 mRNA expression level at 160 mg/ml under osteogenic condition by RT-qPCR analysis", "type": "functional, tissue-based"}, "[22]": {"system": "Rattus norvegicus", "assay": "Induction of tibial bone defect regeneration in ip dosed Lewis rat assessed as alleviation of bone injury administered for 10 consecutive days by HE staining based assay", "type": "functional, organism-based", "conditions": "dose 0.16-4 g/Kg, time 10.0 day"}, "[23]": {"system": "Rattus norvegicus", "assay": "Induction of tibial bone defect regeneration in ip dosed Lewis rat assessed as increase in Conn.D of tibial bone administered for 10 consecutive days by microcomputed tomography method", "type": "functional, organism-based", "conditions": "dose 0.16-4 g/Kg, time 10.0 day"}, "[24]": {"system": "HBMSC", "assay": "Induction of osteogenic differentiation in human BMSCs overexpressing miR-124-3p.1 assessed as increase in cell viability at 160 mg/ml incubated for 72 hrs under osteogenic conditions by MTT assay", "type": "functional, tissue-based"}, "[25]": {"system": "HBMSC", "assay": "Induction of cell cycle arrest in human BMSCs overexpressing miR-124-3p.1 assessed as decrease in cells at G0/G1 phase at 160 mg/ml under osteogenic conditions by PI staining based flow cytometric analysis", "type": "functional"}, "[26]": {"system": "HBMSC", "assay": "Induction of cell cycle arrest in human BMSCs overexpressing miR-124-3p.1 assessed as accumulation of cells at S phase at 160 mg/ml under osteogenic conditions by PI staining based flow cytometric analysis", "type": "functional, tissue-based"}, "[27]": {"system": "HBMSC", "assay": "Induction of cell cycle arrest in human BMSCs overexpressing miR-124-3p.1 assessed as accumulation of cells at G2/M phase at 160 mg/ml under osteogenic conditions by PI staining based flow cytometric analysis", "type": "functional, tissue-based"}, "[28]": {"system": "HBMSC", "assay": "Induction of osteogenic differentiation in human BMSCs overexpressing miR-124-3p.1 assessed as increase in alkaline phosphatase activity at 160 mg/ml incubated for 21 days under osteogenic conditions by ELISA", "type": "functional, tissue-based", "conditions": "time 21.0 day"}, "[29]": {"system": "HBMSC", "assay": "Induction of osteogenic differentiation in human BMSCs overexpressing miR-124-3p.1 assessed as increase in osteogenic medium-induced matrix mineralization by measuring calcium deposition at 160 mg/ml by Alizarin Red S staining-based microscopic analysis", "type": "functional, tissue-based"}, "[30]": {"system": "HBMSC", "assay": "Induction of osteogenic differentiation in human BMSCs overexpressing miR-124-3p.1 assessed as increase in osteogenic medium-induced RUNX2 protein expression level at 160 mg/ml by Western blot analysis", "type": "functional, tissue-based"}, "[31]": {"system": "HBMSC", "assay": "Induction of osteogenic differentiation in human BMSCs overexpressing miR-124-3p.1 assessed as increase in osteogenic medium-induced OCN protein expression level at 160 mg/ml by Western blot analysis", "type": "functional"}, "[32]": {"system": "HBMSC", "assay": "Induction of osteogenic differentiation in human BMSCs overexpressing miR-124-3p.1 assessed as increase in osteogenic medium-induced Smad4 protein expression level at 160 mg/ml by Western blot analysis", "type": "functional, tissue-based"}, "[33]": {"system": "HBMSC", "assay": "Induction of osteogenic differentiation in human BMSCs overexpressing miR-124-3p.1 assessed as increase in osteogenic medium-induced RUNX2 mRNA expression level at 160 mg/ml by RT-qPCR analysis", "type": "functional, tissue-based"}, "[34]": {"system": "HBMSC", "assay": "Induction of osteogenic differentiation in human BMSCs overexpressing miR-124-3p.1 assessed as increase in osteogenic medium-induced OCN mRNA expression level at 160 mg/ml by RT-qPCR analysis", "type": "functional, tissue-based"}, "[35]": {"system": "HBMSC", "assay": "Induction of osteogenic differentiation in human BMSCs overexpressing miR-124-3p.1 assessed as increase in osteogenic medium-induced Smad4 mRNA expression level at 160 mg/ml by RT-qPCR analysis", "type": "functional, tissue-based"}}, "note": "Active and inactive are the calls of the source. No cut-off for these calls is given here."}
{"smiles": "CC(C)(O)[C@@H]1CC[C@](C)([C@H]2[C@@H](O)C[C@@]3(C)[C@@H]4C[C@H](O[C@@H]5O[C@H](CO)[C@@H](O)[C@H](O)[C@H]5O)[C@H]5C(C)(C)[C@@H](O[C@@H]6OC[C@@H](O)[C@H](O)[C@H]6O)CC[C@@]56C[C@@]46CC[C@]23C)O1", "values": [{"measurement": "Activity", "setting": "[1]", "value": "Dose-Dependent Effect"}, {"measurement": "Activity", "setting": "[2]", "value": "Dose-Dependent Effect"}, {"measurement": "Activity", "setting": "[3]", "value": "Dose-Dependent Effect"}, {"measurement": "Activity", "setting": "[4]", "value": "Dose-Dependent Effect"}, {"measurement": "Activity", "setting": "[5]", "value": "Dose-Dependent Effect"}, {"measurement": "Activity", "setting": "[6]", "value": "Dose-Dependent Effect"}, {"measurement": "Activity", "setting": "[7]", "value": "Dose-Dependent Effect"}, {"measurement": "Activity", "setting": "[8]", "value": "Dose-Dependent Effect"}, {"measurement": "Activity", "setting": "[9]", "value": "Dose-Dependent Effect"}, {"measurement": "Activity", "setting": "[10]", "value": "Dose-Dependent Effect"}, {"measurement": "Activity", "setting": "[11]", "value": "Dose-Dependent Effect"}, {"measurement": "Activity", "setting": "[12]", "value": "Dose-Dependent Effect"}, {"measurement": "Activity", "setting": "[13]", "value": "Dose-Dependent Effect"}, {"measurement": "Activity", "setting": "[14]", "value": "Dose-Dependent Effect"}, {"measurement": "Activity", "setting": "[15]", "value": "Dose-Dependent Effect"}, {"measurement": "Activity", "setting": "[16]", "value": "Dose-Dependent Effect"}, {"measurement": "Activity", "setting": "[17]", "value": "Dose-Dependent Effect"}, {"measurement": "Activity", "setting": "[18]", "value": "Dose-Dependent Effect"}, {"measurement": "Activity", "setting": "[19]", "value": "Dose-Dependent Effect"}, {"measurement": "Activity", "setting": "[20]", "value": "Dose-Dependent Effect"}, {"measurement": "Activity", "setting": "[21]", "value": "Active"}, {"measurement": "Activity", "setting": "[22]", "value": "Dose-Dependent Effect"}, {"measurement": "Activity", "setting": "[23]", "value": "Dose-Dependent Effect"}, {"measurement": "Activity", "setting": "[24]", "value": "inactive"}, {"measurement": "Activity", "setting": "[25]", "value": "inactive"}, {"measurement": "Activity", "setting": "[26]", "value": "inactive"}, {"measurement": "Activity", "setting": "[27]", "value": "inactive"}, {"measurement": "Activity", "setting": "[28]", "value": "inactive"}, {"measurement": "Activity", "setting": "[29]", "value": "inactive"}, {"measurement": "Activity", "setting": "[30]", "value": "inactive"}, {"measurement": "Activity", "setting": "[31]", "value": "inactive"}, {"measurement": "Activity", "setting": "[32]", "value": "inactive"}, {"measurement": "Activity", "setting": "[33]", "value": "inactive"}, {"measurement": "Activity", "setting": "[34]", "value": "inactive"}, {"measurement": "Activity", "setting": "[35]", "value": "inactive"}]}
